Entries after “also recorded” stand apart in the source; their conditions may differ.
What was measured:
cardiac muscle = assay: steady-state analysis of calcium sensitivity (steady-state force versus steady-state [Ca2+]i); format: cell-based, rat; conditions: for effects on calcium sensitivity, comparison of the two agents: FIG. 4
Source text: A particularly rigorous method of assessing calcium sensitivity is by steady-state analysis by procedures disclosed in Gao, W. D. et al., supra. […] That response represents defining characteristics of a calcium-sensitizing agent.

[1] = system: LV contractility in conscious dogs; assay: cardiac performance in conscious dogs before and after pacing-induced heart failure (pressure-dimension relations); format: in vivo; conditions: for PRSW (slope of stroke work/end-diastolic dimension relation): 200 mg infused over 30 minutes in the right atrium
Source text: 1. Surgical preparation for chronic dog protocol. Male mongrel dogs (20-30 kg) were anesthetized with 1-2% halothane after induction with sodium pentothal. The chest was opened via a lateral thoracotomy, and indwelling catheters (Tygon; Norton Plastics and Synthetic Division) were secured in the right atrium (for drug infusion) and in the descending aorta (for pressure measurement). An indwelling high fidelity micromanometer (P22, Konigsberg Instruments) was placed in the left ventricle (LV) through an apical stab. […] Pacing leads were attached to the left atrium for acute pacing during experimentation, and epicardial leads for chronic pacing were attached to the right ventricular free wall and connected to a programmable pacemaker (Spectrax, Medtronics) within a subcutaneous pocket. The chest was closed in layers, catheters and leads were externalized to the mid-scapulae, and protected by an external jacket. Analgesia (morphine, 10 mg s.c.) was given in the immediate postoperative period as necessary. Antibiotics were administered for the first 72 hours after surgery. The dogs were allowed to recover fully for 7-10 postoperative days before experimentation. The surgical and experimental protocol was approved by Johns Hopkins School of Medicine Animal Care and Use Committee.
3. Heart failure was induced by chronic rapid ventricular pacing at a rate of 210 bpm for 3 weeks, followed by 240 bpm for one week. […] Acute pacing (140 bpm) was used to keep heart rate constant during the experiments.
a. The analysis of pressure-dimension relationships and the arterial pressure response allowed the evaluation of variables related to myocardial systolic and diastolic performance. […] Preload was indexed as the left ventricular end diastolic anterior -posterior short axis dimension (LVEDD) or the LV end-diastolic volume from the conductance catheter. Afterload was evaluated as effective arterial elastance (Ea, ratio of LV systolic pressure to stroke dimension (Kass, D. A. 1997, Myocardial Mechanics. In Heart Failure. P. Poole-Wilson et al., eds. Churchill Livingstone, New York. 87-108; Kelly, R. P., C. T. Ting, and T. M. Yang. 1992, Circulation 86:513-521). This parameter is not preload-dependent and has been validated to reflect total afterload, which incorporates systemic vascular resistance, aortic impedance, and the reflected wave properties of the vasculature. Contractility was indexed by +dP/dt and the load-independent parameter, preload-recruitable stroke work (PRSW; slope of stoke work/end-diastolic dimension relation) (Kass, D. A., 1986, Circulation 73:586-595). Diastolic performance was measured by peak −dP/dt, time to peak filling rate (ttpf), and the time constant of relaxation (tau). Tau was calculated using the method of Weiss and colleagues (Ingwall, J. S. 1993, Circulation 87:VII-58-VII-62.).
(§1) The ECG was continuously monitored.

rat cardiac muscle = assay: in vitro calcium-sensitizing assay: contractile force and fura-2 [Ca2+]i in rat cardiac muscle
[2] = plasma level estimate in 25 kg dogs; format: in vivo; conditions: 200 mg i.v. in 25 kg dogs
Source text: as §1

[3] = value used for the dose extrapolation in 25 kg dogs; cited from earlier work
phosphodiesterase = conditions: stated as well established; cited from earlier work
[4] = after a standard dose (300 mg p.o.); cited from earlier work
canine left ventricle = assay: cardiac energetics (O2 consumption, mechanical efficiency) in anesthetized control and heart failure dogs; format: in vivo
Experimental: 3. Heart failure was induced by chronic rapid ventricular pacing at a rate of 210 bpm for 3 weeks, followed by 240 bpm for one week. This brought the dogs into heart failure with an average left ventricular end-diastolic pressure (LVEDP) of 23.5∀5.2 mm Hg. Acute pacing (140 bpm) was used to keep heart rate constant during the experiments.
b. Oxygen consumption per unit time (MVO2) in the left circumflex artery territory was calculated from the difference in oxygen saturation in simultaneously sampled coronary sinus and aortic blood, multiplied by left circumflex coronary blood flow. This, in turn, was calculated from flow velocity multiplied by left circumflex diameter. Left circumflex diameter was analyzed from a film projector (CAP 35B, Angiogram Projection System) using quantitative angiography (Cath View v1.36, Image Comm Systems).
c. The external useful work of the LV was indexed as stroke work (SW=area of pressure-volume loops). Both stroke SW and MVO2 were converted to Joules per beat (Suga, H. et al. 1983, Circ. Res. 53:306-318). Cardiac mechanical efficiency was calculated as SW/MVO2. Hemodynamic pressure-dimension data were digitized at 200 Hz and stored for subsequent analysis on a personal computer using customized software.
Isoflurane was chosen as the anesthetic because of its relatively mild and stable effect on the cardiovascular system (R M. Jones, British Journal of Anaesthesia, 56 Suppl 1:57S-69S (1984); E. I. Eger, British Journal of Anaesthesia, 56 Suppl 1:71S-99S (1984)). A doppler flow velocimeter (0.014 Cardiometrics) and a 6 Fr. angiography catheter (AL-I or JL 3.5, Cordis Laboratories Inc) were inserted through an 8 Fr sheath (Cordis) in the right femoral artery and advanced to the left circumflex coronary artery. These catheters permitted measurement of coronary flow and injection of contrast for the measurement of coronary diameter. A catheter (A2 multipurpose, 6 Fr.) was advanced from the left external jugular vein via a 7 Fr. sheath (Cordis) into the great cardiac vein for withdrawal of mixed coronary venous blood. To measure cardiac oxygen consumption, blood samples from the coronary sinus and the femoral artery were obtained simultaneously. At each time point, blood flow velocity in the left circumflex artery was measured and coronary angiography was performed.
In 4 of 11 experiments, preexisting indwelling sonomicrometer crystals, Konigsberg micromanometers, and IVC occluders (see above) were used for dimension and pressure measurements, and for acute preload reduction. In the other 7 experiments, a combined micromanometer-conductance catheter (M!illar) was advanced to the LV and positioned for continuous measurement of LV pressure and volume via a 7 Fr. sheath (Cordis) in the femoral artery. A Swan-Ganz catheter (Arrow, 7 Fr.) was advanced via a 9F sheath in the femoral vein to the pulmonary artery for measurement of cardiac output and for hypertonic saline wash-in (Baan, J., E. van der Velde, A. D. van Dijk and et al. 1992, In Cardiovascular system dynamics: Models and measurements. Anonymous Plenum Press, New York, 569; Kass, D. A. et al. 1986. Circulation 73:586-595) to calibrate the volume signal. This catheter was then replaced with a balloon occlusion catheter (Cordis) positioned in the IVC for acute preload reduction for pressure-volume analysis.
A combined manometer-conductance catheter was positioned in the left ventricle for continuous measurement of volume and pressures in the ventricle and aorta. Volume was calibrated with measurement of cardiac output and hypertonic saline wash-in. In addition, dogs were acutely instrumented a doppler flow velocimeter probe and an angiography catheter in the left circumflex coronary artery to measure coronary flow velocity and coronary diameter. […]

Oc1ncnc2[nH]ncc12 [allopurinol, 4-hydroxy-pyrazolo[3,4-d]pyrimidine]
effects on calcium sensitivity, comparison of the two agents (cardiac muscle): essentially indistinguishable effects on calcium sensitivity | maximal force (cardiac muscle; steady-state analysis, FIG. 2): increased maximal force | contractile activation curve (steady-state force vs steady-state [Ca2+]i) (cardiac muscle; versus control muscles exposed to no drug, FIG. 2): shifted the contractile activation curve to lower [Ca^2+]i | effect on healthy dogs ([1]; acted only in dogs with heart failure): did not adversely affect healthy dogs | PRSW (slope of stroke work/end-diastolic dimension relation) ([1]; after pacing-induced heart failure): increased the slope after heart failure | change of (dP/dt)max at the peak response ([1]; control dogs (n=10), 10 min after end of infusion, p=0.01): +8.3±3.2% | (dP/dt)max at the peak response ([1]; control dogs (n=10), 10 min after end of infusion, base line value 3101±162): 3373±225 mm Hg/s | PRSW (slope of stroke work/end-diastolic dimension relation) ([1]; control dogs): did not affect the slope of the PRSW relation; also recorded: not significantly changed | effect on diastolic function ([1]; in vivo use, dogs): no adverse effect on diastolic function | calcium ion concentration ([Ca2+]i) (rat cardiac muscle; fura-2, FIG. 1): decreasing calcium ion concentration | contractile force (rat cardiac muscle; relative to control not exposed, FIG. 1): increases contractile force | plasma level estimated to be attained [2]: 4500 ng/mL | distribution volume [3]: 1.6 L/kg | phosphodiesterase inhibition (phosphodiesterase): no phosphodiesterase inhibition | plasma levels achieved in humans [4]: 3000 to 9000 ng/mL | oxygen utilization (canine left ventricle; failing canine left ventricle, 200 mg iv): decreases oxygen utilization | myocardial arterio-venous oxygen difference (canine left ventricle; heart failure dogs, 200 mg iv): not changed | change in left circumflex blood flow (canine left ventricle; heart failure dogs, 10 min post-infusion of 200 mg iv over 30 minutes, p=0.0015): −40±6%

CC(CCc1ccc(O)cc1)NCCc1ccc(O)c(O)c1 (centres unmarked) [dobutamine]
increase of oxygen consumption (canine left ventricle; heart failure dogs, infusion 10 μg/Kg/min, p=0.007): 145±53.0% | change of SW/MVO2 (canine left ventricle; heart failure dogs, infusion 10 μg/Kg/min, p=0.05): −29.3±6.8% | mechanical efficiency (canine left ventricle; heart failure dogs, infusion 10 μg/Kg/min, FIG. 9): significant decrease in mechanical efficiency

Oc1nc(O)c2cn[nH]c2n1 [oxypurinol, 4,6-dihydroxypyrazolo[3,4-d]pyrimidine]
effects on calcium sensitivity, comparison of the two agents (cardiac muscle): essentially indistinguishable effects on calcium sensitivity | force at any given [Ca2+]i (cardiac muscle; treated versus control muscles, FIG. 3): generate more force at any given [Ca^2+]i than control muscles

From patent US6569862B1, “Methods for treatment of disorders of cardiac contractility” (Johns Hopkins University, priority 1997, dated 2003)
